From article PMC6934184, “Selective DNA-PKcs inhibition extends the therapeutic index of localized radiotherapy and chemotherapy” (The Journal of Clinical Investigation, 2019)

Molecular target: T1, PIK3C3 (hVPS34) (Homo sapiens, UniProt Q8NEB9)
T1 construct: purchased Thermo Fisher Scientific (Life Technologies) SelectScreen
Assay: SelectScreen Adapta
Format: biochemical
Conditions: ATP Km app
In short: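 Percent values come from Thermo SelectScreen profiling of NU5455, combining activity and binding assays. CSF1R was run in Z'LYTE format at Km app ATP, and CAMK1 in Adapta format with ATP listed at 10.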

T1 sequence (Q8NEB9 whole entry): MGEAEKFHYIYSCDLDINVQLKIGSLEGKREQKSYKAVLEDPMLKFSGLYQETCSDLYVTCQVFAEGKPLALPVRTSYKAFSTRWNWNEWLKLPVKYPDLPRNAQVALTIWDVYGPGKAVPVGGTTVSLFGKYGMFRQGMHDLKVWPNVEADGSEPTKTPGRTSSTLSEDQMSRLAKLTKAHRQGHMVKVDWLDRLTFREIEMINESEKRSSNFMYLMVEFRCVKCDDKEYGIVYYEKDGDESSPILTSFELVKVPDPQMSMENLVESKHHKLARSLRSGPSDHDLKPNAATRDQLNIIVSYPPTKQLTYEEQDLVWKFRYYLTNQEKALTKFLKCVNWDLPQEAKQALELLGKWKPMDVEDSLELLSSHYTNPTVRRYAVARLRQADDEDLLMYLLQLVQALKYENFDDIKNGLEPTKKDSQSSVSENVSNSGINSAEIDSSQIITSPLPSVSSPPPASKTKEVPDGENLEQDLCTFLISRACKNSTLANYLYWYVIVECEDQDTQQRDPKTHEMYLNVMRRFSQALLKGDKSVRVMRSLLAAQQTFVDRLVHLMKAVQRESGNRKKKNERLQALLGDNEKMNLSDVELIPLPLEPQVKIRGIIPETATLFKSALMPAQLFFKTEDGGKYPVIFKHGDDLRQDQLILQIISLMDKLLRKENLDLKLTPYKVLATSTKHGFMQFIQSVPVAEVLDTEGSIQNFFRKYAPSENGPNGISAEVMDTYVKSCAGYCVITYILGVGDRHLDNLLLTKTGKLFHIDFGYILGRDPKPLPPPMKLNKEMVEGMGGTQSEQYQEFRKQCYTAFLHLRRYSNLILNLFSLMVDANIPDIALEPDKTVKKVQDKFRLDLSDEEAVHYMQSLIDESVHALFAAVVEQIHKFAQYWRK

With `CN(C(=O)CN1CCOCC1)c1ccc2sc3c(-c4cccc5c(=O)cc(N6CC7CCC(C6)O7)oc45)cccc3c2c1` [NU5455] the “% inhibition” value (1 µM) was 86% and the inhibition at 1 µM was 85.9%.
